Measured values: patent US4282244A, “Optical isomers of 4-amino-N-(1-cyclohexyl-3-pyrrolidinyl)-N-methylbenzamide” (A. H. Robins Company, Inc., priority 1980, dated 1981)
Where a name gives a salt, the structure may show the parent alone.

Experiments:
[1] = cataleptic effects (Tedeschi et al.); assay type: in vivo, rat; conditions: in vivo, rat, expressed as free base; for TD50: footnote c, read-out: Neurotoxic dose level evidenced by seizures in test animals; for NOAEL: fumarate salt
Excerpt: (§1) The procedure used for determing cataleptic effects of the fumarate salts was based on that of Tedeschi et al., Arch. Int. Pharmacodyn.

catalepsy = assay: cataleptic effects (Tedeschi et al.); assay type: in vivo, rat
Excerpt: as §1

[2] = acute toxicity (LD50), rat; assay type: in vivo; conditions: in vivo, fumarate salt, expressed as free base, read-out: LD50 (95% Confidence Limits)
Experimental: (§2) The acute toxicities of the ±-racemate, the (+)-isomer and the (-)-isomer were conducted with the fumarate salts and probit analysis (Finney, D. J., Statistical Methods in Biological Assay, Hafner Pub. Co., N.Y., 2nd. Ed., 1964) was employed for the statistical treatment of the mortality data.

[3] = acute toxicity (LD50), mouse; assay type: in vivo; conditions: in vivo, fumarate salt, expressed as free base, read-out: LD50 (95% Confidence Limits)
Experimental: as §2

[4] = system: Chlorpromazine-Induced Catalepsy; assay: Effects on Chlorpromazine-Induced Catalepsy; assay type: in vivo, rat; conditions: Chlorpromazine 4 mg/kg IP, then saline IP after one hour
Experimental: (§3) (+)-4-Amino-N-(1-cyclohexyl-3-pyrrolidinyl)-N-methylbenzamide is useful in reducing the cataleptic side effects of known therapeutically effective drugs such as chlorpromazine [2-chloro-10-(3-dimethylaminopropyl)phenothiazine] and metoclopramide (N-diethylaminoethyl 2-methoxy-4-amino-5-chlorophenylcarboxamide). The effectiveness is shown in Tables IV and V. In each test the rat was administered a 100% effective cataleptic dose of the test drug followed one hour later by an effective dose of (+)-4-amino-N-(1-cyclohexyl-3-pyrrolidinyl)-N-methylbenzamide.

[5] = system: Metoclopramide-Induced Catalepsy; assay: Effects on Metoclopramide-Induced Catalepsy; assay type: in vivo, rat; conditions: Metoclopramide 40 mg/kg IP, then saline IP after one hour
Experimental: as §3

Structure (SMILES): CN(C(=O)c1ccc(N)cc1)C1CCN(C2CCCCC2)C1 (racemic) [± racemate, 4-amino-N-(1-cyclohexyl-3-pyrrolidinyl)-N-methylbenzamide]
- TD50 ([1]; IP): 100 mg/kg
- NOAEL ([1]; IP): 100 mg/kg
- NOAEL ([1]; PO): 200 mg/kg
- cataleptic properties (catalepsy): notable absence of cataleptic properties
- LD50 ([2]; ip, I.P.): 111 mg/kg
- LD50 ([2]; po, P.O.): 305 mg/kg
- LD50 ([3]; ip, I.P.): 90.2 mg/kg
- LD50 ([3]; po, P.O.): 181 mg/kg

Structure (SMILES): CN(C(=O)c1ccc(N)cc1)C1CCN(C2CCCCC2)C1 (single isomer, unassigned; (-)) [(-)-isomer, (-)-4-Amino-N-(1-cyclohexyl-3-pyrrolidinyl)-N-methyl benzamide Fumarate]
- TD50 ([1]; IP): 100 mg/kg
- LD50 ([2]; ip, I.P.): 116 mg/kg
- LD50 ([2]; po, P.O.): 410 mg/kg
- LD50 ([3]; ip, I.P.): 103 mg/kg
- LD50 ([3]; po, P.O.): 241 mg/kg

Structure (SMILES): CN(C)CCCN1c2ccccc2Sc2ccc(Cl)cc21 [Chlorpromazine, 2-chloro-10-(3-dimethylaminopropyl)phenothiazine, reference compound]
- Percent of Rats Cataleptic ([4]; 0.5 h after initial treatment): 100%
- Percent of Rats Cataleptic ([4]; 1.0 h after initial treatment): 100%
- Percent of Rats Cataleptic ([4]; 1.5 h after initial treatment): 100%
- Percent of Rats Cataleptic ([4]; 2.0 h after initial treatment): 100%
- Percent of Rats Cataleptic ([4]; 3.0 h after initial treatment): 100%
- Percent of Rats Cataleptic ([4]; 4.0 h after initial treatment): 100%
- Percent of Rats Cataleptic ([4]; 5.0 h after initial treatment): 100%
- Percent of Rats Cataleptic ([4]; 6.0 h after initial treatment): 100%

Structure (SMILES): CCN(CC)CCNC(=O)c1cc(Cl)c(N)cc1OC [Metoclopramide, N-diethylaminoethyl 2-methoxy-4-amino-5-chlorophenylcarboxamide, reference compound]
- Percent of Rats Cataleptic ([5]; 0.5 h after initial treatment): 100%
- Percent of Rats Cataleptic ([5]; 1.0 h after initial treatment): 100%
- Percent of Rats Cataleptic ([5]; 1.5 h after initial treatment): 100%
- Percent of Rats Cataleptic ([5]; 2.0 h after initial treatment): 100%
- Percent of Rats Cataleptic ([5]; 3.0 h after initial treatment): 100%
- Percent of Rats Cataleptic ([5]; 4.0 h after initial treatment): 100%
- Percent of Rats Cataleptic ([5]; 5.0 h after initial treatment): 100%
- Percent of Rats Cataleptic ([5]; 6.0 h after initial treatment): 100%
